Laboratory results: ChEMBL document CHEMBL4834404, “Template-Hopping Approach Leads to Potent, Selective, and Highly Soluble Bromo and Extraterminal Domain (BET) Second Bromodomain (BD2) Inhibitors” (J Med Chem, 2021)
Values after ≈ are worked out from the molar mass of the structure shown.

Test system: not listed separately
Assay: Permeability of compound
Format: ADME
Conditions: not told; read-out: permeability

Compound | Papp [×10⁻⁶ cm/s]
CCNC(=O)c1ccc(OCC2CCOCC2)c(-c2cn(C)nn2)c1 | 11
C[C@H](Oc1ccc(C(=O)N[C@H]2CC[C@H](O)CC2)cc1-c1cn(C)nn1)c1ccccn1 | 1.3
CCNC(=O)c1ccc(OCc2cccnc2)c(-c2cn(C)nn2)c1 | 18
CNC(=O)c1cc(C(=O)NC2CC2)cn(Cc2ccccc2)c1=O [GSK620] | 20
CCNC(=O)c1ccc(OCCc2ccccc2)c(-c2cn(C)nn2)c1 | 49
CCNC(=O)c1cc(Cc2cccc(OC)c2)nc(-c2cn(C)nn2)c1 | 47
CCNC(=O)c1ccc(OCc2ncccn2)c(-c2cn(C)nn2)c1 | 3.7
C[C@H](Oc1ccc(C(=O)NCC2CCOCC2)cc1-c1cn(C)nn1)c1ccccn1 | 5.5
CCNC(=O)c1cc(Cc2ccc(OC)cc2)nc(-c2cn(C)nn2)c1 | 32

The next lines start with the values.

Papp [×10⁻⁶ cm/s] | Compound
32.5 | CCNC(=O)c1cc(Cc2ccccc2)nc(-c2cn(C)nn2)c1
42 | CCNC(=O)c1ccc(OCc2cccc(OC)c2)c(-c2cn(C)nn2)c1
4.2 | C[C@H](Oc1ccc(C(=O)N[C@H]2[C@@H]3COC[C@@H]32)cc1-c1cn(C)nn1)c1ccccn1
41 | CCNC(=O)c1cc(Cc2cccc(F)c2)nc(-c2cn(C)nn2)c1
2.3 | Cn1cc(-c2cc(C(=O)NCCC[C@@]3(F)CCCNC3)cc(Cc3ccccc3)n2)nn1
22 | Cn1cc(-c2cc(C(=O)NCC3CCOCC3)cc(Cc3ccccc3)n2)nn1
39 | CCNC(=O)c1ccc(OCc2ccc(OC)cc2)c(-c2cn(C)nn2)c1
4.6 | CCNC(=O)c1ccc(OCc2ccccc2)c(-c2cn(C)nn2)c1
1.9 | Cn1cc(-c2cc(C(=O)NCC[C@]3(F)CCCNC3)cc(Cc3ccccc3)n2)nn1

Organism: Homo sapiens
Assay: Selectivity index, ratio of pIC50 of BRD4 BD1 (unknown origin) to pIC50 of BRD4 BD2 (unknown origin)
Conditions: not given

Compound | Ratio pIC50
Cn1cc(-c2ccccc2OCc2ccccc2)nn1 | 5
Cc1nnc(-c2ccccc2OCc2ccccc2)o1 | > 4
C[C@H](Oc1ccc(C(=O)N[C@H]2CC[C@H](O)CC2)cc1-c1cn(C)nn1)c1ccccn1 | 20
CCNC(=O)c1ccc(OCc2cccnc2)c(-c2cn(C)nn2)c1 | > 50
Cc1cn(-c2ccccc2OCc2ccccc2)nn1 | 2
CCNC(=O)c1ccc(OCCc2ccccc2)c(-c2cn(C)nn2)c1 | > 20
CCNC(=O)c1cc(Cc2cccc(OC)c2)nc(-c2cn(C)nn2)c1 | > 80
Cc1nc(-c2ccccc2OCc2ccccc2)n[nH]1 | > 6
CCNC(=O)c1ccc(OCc2ncccn2)c(-c2cn(C)nn2)c1 | > 30
C[C@H](Oc1ccc(C(=O)NCC2CCOCC2)cc1-c1cn(C)nn1)c1ccccn1 | 65
Cc1cc(-c2ccccc2OCc2ccccc2)on1 | 3
CCNC(=O)c1cc(Cc2ccc(OC)cc2)nc(-c2cn(C)nn2)c1 | > 65

Further lines, results first:

Ratio pIC50 | Compound
170 | CCNC(=O)c1cc(Cc2ccccc2)nc(-c2cn(C)nn2)c1
80 | CCNC(=O)c1ccc(OCc2cccc(OC)c2)c(-c2cn(C)nn2)c1
65 | C[C@H](Oc1ccc(C(=O)N[C@H]2[C@@H]3COC[C@@H]32)cc1-c1cn(C)nn1)c1ccccn1
65 | CCNC(=O)c1cc(Cc2cccc(F)c2)nc(-c2cn(C)nn2)c1
500 | Cn1cc(-c2cc(C(=O)NCCC[C@@]3(F)CCCNC3)cc(Cc3ccccc3)n2)nn1
> 160 | Cn1cc(-c2cc(C(=O)NCC3CCOCC3)cc(Cc3ccccc3)n2)nn1
65 | CCNC(=O)c1ccc(OCc2ccc(OC)cc2)c(-c2cn(C)nn2)c1
100 | CCNC(=O)c1ccc(OCc2ccccc2)c(-c2cn(C)nn2)c1
250 | Cn1cc(-c2cc(C(=O)NCC[C@]3(F)CCCNC3)cc(Cc3ccccc3)n2)nn1

Molecular target: Bromodomain-containing protein 4 (Homo sapiens, UniProt O60885, Y97A)
Assay: Inhibition of 6His-Thr-BRD4 (1 to 477 residues) BD1 Y97A mutant (unknown origin) incubated for 30 mins by TR-FRET assay
Conditions: not given

Compound | IC50 [µM]
Cn1cc(-c2ccccc2OCc2ccccc2)nn1 | 20
Cc1nnc(-c2ccccc2OCc2ccccc2)o1 | > 50.1
C[C@H](Oc1ccc(C(=O)N[C@H]2CC[C@H](O)CC2)cc1-c1cn(C)nn1)c1ccccn1 | 7.94
CCNC(=O)c1ccc(OCc2cccnc2)c(-c2cn(C)nn2)c1 | > 50.1
Cc1cn(-c2ccccc2OCc2ccccc2)nn1 | 31.6
CCNC(=O)c1ccc(OCCc2ccccc2)c(-c2cn(C)nn2)c1 | > 50.1
CCNC(=O)c1cc(Cc2cccc(OC)c2)nc(-c2cn(C)nn2)c1 | > 50.1
Cc1nc(-c2ccccc2OCc2ccccc2)n[nH]1 | > 50.1
CCNC(=O)c1ccc(OCc2ncccn2)c(-c2cn(C)nn2)c1 | > 50.1
C[C@H](Oc1ccc(C(=O)NCC2CCOCC2)cc1-c1cn(C)nn1)c1ccccn1 | 31.6
Cc1cc(-c2ccccc2OCc2ccccc2)on1 | 10
CCNC(=O)c1cc(Cc2ccc(OC)cc2)nc(-c2cn(C)nn2)c1 | > 50.1

The next lines start with the values.

IC50 [µM] | Compound
20 | CCNC(=O)c1ccc(OCc2cccc(OC)c2)c(-c2cn(C)nn2)c1
1.58 | C[C@H](Oc1ccc(C(=O)N[C@H]2[C@@H]3COC[C@@H]32)cc1-c1cn(C)nn1)c1ccccn1
15.8 | CCNC(=O)c1cc(Cc2cccc(F)c2)nc(-c2cn(C)nn2)c1
5.01 | Cn1cc(-c2cc(C(=O)NCCC[C@@]3(F)CCCNC3)cc(Cc3ccccc3)n2)nn1
> 50.1 | Cn1cc(-c2cc(C(=O)NCC3CCOCC3)cc(Cc3ccccc3)n2)nn1
20 | CCNC(=O)c1ccc(OCc2ccc(OC)cc2)c(-c2cn(C)nn2)c1
12.6 | CCNC(=O)c1ccc(OCc2ccccc2)c(-c2cn(C)nn2)c1
6.31 | Cn1cc(-c2cc(C(=O)NCC[C@]3(F)CCCNC3)cc(Cc3ccccc3)n2)nn1

Test system: not listed separately
Assay: Solubility of compound by CLND assay
Format: physicochemical
Conditions: not given

Compound | solubility kinetic [µg/mL]
Cn1cc(-c2ccccc2OCc2ccccc2)nn1 | 87 (≈ 328 µM)
Cc1nnc(-c2ccccc2OCc2ccccc2)o1 | ≥ 252
CC(=O)Nc1ccccc1OCc1ccccc1 | ≥ 113
CCNC(=O)c1ccc(OCC2CCOCC2)c(-c2cn(C)nn2)c1 | ≥ 208
C[C@H](Oc1ccc(C(=O)N[C@H]2CC[C@H](O)CC2)cc1-c1cn(C)nn1)c1ccccn1 | ≥ 188
CCNC(=O)c1ccc(OCc2cccnc2)c(-c2cn(C)nn2)c1 | 103 (≈ 305 µM)
CNC(=O)c1cc(C(=O)NC2CC2)cn(Cc2ccccc2)c1=O [GSK620] | ≥ 154
Cc1cn(-c2ccccc2OCc2ccccc2)nn1 | 96 (≈ 362 µM)
CCNC(=O)c1ccc(OCCc2ccccc2)c(-c2cn(C)nn2)c1 | 95 (≈ 271 µM)
CCNC(=O)c1cc(Cc2cccc(OC)c2)nc(-c2cn(C)nn2)c1 | ≥ 45
Cc1nc(-c2ccccc2OCc2ccccc2)n[nH]1 | ≥ 70
CCNC(=O)c1ccc(OCc2ncccn2)c(-c2cn(C)nn2)c1 | ≥ 103
C[C@H](Oc1ccc(C(=O)NCC2CCOCC2)cc1-c1cn(C)nn1)c1ccccn1 | ≥ 192
Cc1cc(-c2ccccc2OCc2ccccc2)on1 | 1 (≈ 3.77 µM)
CCNC(=O)c1cc(Cc2ccc(OC)cc2)nc(-c2cn(C)nn2)c1 | 53 (≈ 151 µM)

The next lines start with the values.

solubility kinetic [µg/mL] | Compound
≥ 157 | CCNC(=O)c1cc(Cc2ccccc2)nc(-c2cn(C)nn2)c1
≥ 139 | CCNC(=O)c1ccc(OCc2cccc(OC)c2)c(-c2cn(C)nn2)c1
≥ 169 | C[C@H](Oc1ccc(C(=O)N[C@H]2[C@@H]3COC[C@@H]32)cc1-c1cn(C)nn1)c1ccccn1
73 (≈ 215 µM) | CCNC(=O)c1cc(Cc2cccc(F)c2)nc(-c2cn(C)nn2)c1
≥ 172 | Cn1cc(-c2cc(C(=O)NCCC[C@@]3(F)CCCNC3)cc(Cc3ccccc3)n2)nn1
≥ 142 | Cn1cc(-c2cc(C(=O)NCC3CCOCC3)cc(Cc3ccccc3)n2)nn1
≥ 142 | CCNC(=O)c1ccc(OCc2ccc(OC)cc2)c(-c2cn(C)nn2)c1
46 (≈ 137 µM) | CCNC(=O)c1ccc(OCc2ccccc2)c(-c2cn(C)nn2)c1
≥ 181 | Cn1cc(-c2cc(C(=O)NCC[C@]3(F)CCCNC3)cc(Cc3ccccc3)n2)nn1

Molecular target: Bromodomain-containing protein 4 (Homo sapiens, UniProt O60885, Y390A)
Assay: Inhibition of 6His-Thr-BRD4 (1 to 477 residues) BD2 domain Y390A mutant (unknown origin) incubated for 30 mins by TR-FRET assay
Conditions: not given

Compound | IC50 [µM]
Cn1cc(-c2ccccc2OCc2ccccc2)nn1 | 3.98
Cc1nnc(-c2ccccc2OCc2ccccc2)o1 | 12.6
C[C@H](Oc1ccc(C(=O)N[C@H]2CC[C@H](O)CC2)cc1-c1cn(C)nn1)c1ccccn1 | 0.398
CCNC(=O)c1ccc(OCc2cccnc2)c(-c2cn(C)nn2)c1 | 1
Cc1cn(-c2ccccc2OCc2ccccc2)nn1 | 15.8
CCNC(=O)c1ccc(OCCc2ccccc2)c(-c2cn(C)nn2)c1 | 2.51
CCNC(=O)c1cc(Cc2cccc(OC)c2)nc(-c2cn(C)nn2)c1 | 0.631
Cc1nc(-c2ccccc2OCc2ccccc2)n[nH]1 | 7.94
CCNC(=O)c1ccc(OCc2ncccn2)c(-c2cn(C)nn2)c1 | 1.58
C[C@H](Oc1ccc(C(=O)NCC2CCOCC2)cc1-c1cn(C)nn1)c1ccccn1 | 0.501
Cc1cc(-c2ccccc2OCc2ccccc2)on1 | 3.98
CCNC(=O)c1cc(Cc2ccc(OC)cc2)nc(-c2cn(C)nn2)c1 | 0.794

Next, values leading:

IC50 [µM] | Compound
0.1 | CCNC(=O)c1cc(Cc2ccccc2)nc(-c2cn(C)nn2)c1
0.251 | CCNC(=O)c1ccc(OCc2cccc(OC)c2)c(-c2cn(C)nn2)c1
0.0251 | C[C@H](Oc1ccc(C(=O)N[C@H]2[C@@H]3COC[C@@H]32)cc1-c1cn(C)nn1)c1ccccn1
0.251 | CCNC(=O)c1cc(Cc2cccc(F)c2)nc(-c2cn(C)nn2)c1
0.01 | Cn1cc(-c2cc(C(=O)NCCC[C@@]3(F)CCCNC3)cc(Cc3ccccc3)n2)nn1
0.316 | Cn1cc(-c2cc(C(=O)NCC3CCOCC3)cc(Cc3ccccc3)n2)nn1
0.316 | CCNC(=O)c1ccc(OCc2ccc(OC)cc2)c(-c2cn(C)nn2)c1
0.126 | CCNC(=O)c1ccc(OCc2ccccc2)c(-c2cn(C)nn2)c1
0.0251 | Cn1cc(-c2cc(C(=O)NCC[C@]3(F)CCCNC3)cc(Cc3ccccc3)n2)nn1
